Data set [1] can be described thus: Plasma pharmacokinetics studies on rats. Conditions: rats. The procedure: In vivo pharmacokinetics (PK) studies were conducted for selected compounds during the whole optimization at various stages in order to identify structural elements that are favorable for in vivo applications, and/or to evaluate the feasibility of optimized Limk inhibitors for animal studies.

A further data set concerns HIV-1(NL4-3). As to the kind of experiment: microbe, parasite or virus in culture. The class given is cell-based.
The target in a further data set is T1, P450 1A2 (Homo sapiens, UniProt P05177).
T1 sequence (P05177 1-516): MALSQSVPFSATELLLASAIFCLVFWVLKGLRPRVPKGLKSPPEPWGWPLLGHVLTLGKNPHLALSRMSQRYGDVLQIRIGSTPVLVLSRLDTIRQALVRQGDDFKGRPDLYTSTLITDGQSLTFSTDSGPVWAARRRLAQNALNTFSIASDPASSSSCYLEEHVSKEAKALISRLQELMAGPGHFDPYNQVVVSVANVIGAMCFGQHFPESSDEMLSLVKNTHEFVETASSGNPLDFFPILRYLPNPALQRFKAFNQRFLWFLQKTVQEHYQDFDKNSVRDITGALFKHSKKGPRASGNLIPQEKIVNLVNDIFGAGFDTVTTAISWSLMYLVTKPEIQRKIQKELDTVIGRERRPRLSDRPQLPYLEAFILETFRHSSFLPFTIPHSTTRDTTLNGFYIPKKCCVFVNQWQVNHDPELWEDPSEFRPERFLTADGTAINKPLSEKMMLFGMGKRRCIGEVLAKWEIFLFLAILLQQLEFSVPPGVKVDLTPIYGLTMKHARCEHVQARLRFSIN

The target in another data set is P450 2D6 (Homo sapiens, UniProt P10635). As to the kind of experiment: P450 inhibition at 10 μM. It is filed as in vitro ADME.
For the next data set, the system named is PC-3 cells. The experiment in a line: In vitro migration (wound closure) assay in PC-3 cells. The settings on record: Homo sapiens, PC-3, 24 hours, compared to the control, read-out: inhibition of migration of PC-3 cells. The class given is cell-based. The procedure:
PC3 cells were cultured to confluence at >90% in 6 well culture dishes in 10% FBS RPMI1640 media the day before the assay. Lines were drawn with a marker on the bottom of the dishes. Using a sterile 1 mL pipet tip, the dishes were scratched three separate wounds through the cells moving perpendicular to the line drawn in the step above. The cells were rinsed with PBS twice very gently and added the RPMI1640 media, and the dishes were taken pictures using phase contrast under Leica DMI3000B microscope.

The next data set has as its target T2, LRRK2 (G20195) (Homo sapiens, UniProt Q5S007, G2019S).
T2 construct: purchased Reaction Biology Corporation
As to the kind of experiment: Kinase profiling at 1 μM (Reaction Biology). The class given is biochemical. The protocol:
Profiling was carried out at Reaction Biology Corporation following a protocol described at its website: http://www.reactionbiology.com/webapps/site/. The % data were the average from two determinations. ATP concentration used: 10 μM; Staurosporine was used as the positive control.
Biochemical assays for all Limk inhibitors and kinase profiling were carried out in Reaction Biology Corporation and followed the protocols described on its website. […] Compounds were tested at 1 μM with duplicate experiments in profiling assays. […] Reactions were carried out at 10 μM ATP, 1 μM substrate cofilin, and 50 nM Limk1 (final concentrations).

Data set [2] deals with surface CD4 and CXCR4 on CEM-SS T cells. The experiment in a line: Surface staining of CD4 and CXCR4. The class given is cell-based, human. The procedure: FIG. 11. R10015 inhibits HIV-1 DNA synthesis, nuclear migration, and virion release. a, Effects of R10015 on surface CD4 and CXCR4 expression. […] CEM-SS T cells were treated with R10015, and then infected with BlaM-Vpr tagged HIV-1(NL4-3) or HIV-1(VSV-G) to measure viral entry. c. R10015 inhibits viral DNA synthesis. CEM-SS T cells were treated with R10015 for 1 hour, and then infected with a single-cycle HIV-1(Env) for 2 hours in the presence of R10015. Following infection, cells were washed to remove HIV-1 and R10015. Viral DNA synthesis was measured by real-time PCR. d. R10015 inhibits 2-LTR circle DNA formation. Cells were similar treated with R10015 and infected. 2-TLR circles were quantified by real-time PCR. e. R10015 inhibits virion release. Cells were infected with HIV-1(Env) for 2 hours, washed, incubated for 12 hours, and then treated with R10015. Virion release was quantified by measuring p24 in the supernatant.
Cells were stained with FITC-labeled monoclonal antibody against human CD4 (clone PRA-T4) or CXCR4 (clone 12G5) (BD Biosciences). Cells were stained on ice in PBS+0.1% BSA for 30 minutes, washed with cold PBS-0.5% BSA, and then analyzed on a FACSCalibur (BD Biosciences).

In another data set the test system is resting CD4 T cells. As to the kind of experiment: SDF-1-mediated actin polymerization, FITC-phalloidin staining. It is filed as cell-based, human. The settings on record: pre-treatment of resting CD4 T cells. The procedure: FIG. 10. Chemical and Biochemical characterization of R10015. a, Chemical structure of R10015 and its docking into the crystal structure of LIMK1 (PDB ID 3S95, Chain A). […] CEM-SS T cells treated with R10015 (100 μM) for a time course, and the phosphorylation of cofilin, LIMK, and PAK1/2 were measured by Western Blot. Levels of each protein or GAPDH were also measured for loading control. d, R10015 inhibits Jurkat T cell chemotaxis in responding to SDF-1. e, R10015. f, R10015 inhibits chemotactic actin activity. Resting CD4 T cells were treated with R10015, and then exposed to SDF-1 for a time course. Actin polymerization were measured by FITC-phalloidin staining. g, the relative intensity of F-actin staining was also plotted.
F-actin staining using phalloidin-FITC (Sigma) was carried out as described previously. Briefly, each staining was carried out using 1×10^6 cells. Cells were pelleted, fixed, and permeabilized with CytoPerm/Cytofix buffer (BD Biosciences) for 20 min at room temperature and washed with cold Perm/Wash buffer (BD Biosciences) twice, followed by staining with 5 μl of 0.3 mM FITC-labeled phalloidin (Sigma) for 30 min on ice in the dark. Cells were washed twice with cold Perm/Wash buffer, then were resuspended in 1% paraformaldehyde, and analyzed on a FACSCalibur (BD Biosciences).

Data set [3] has as its system single-cycle HIV-1(Env) in CEM-SS T cells. As to the kind of experiment: Viral 2-LTR circles, real-time PCR. It is filed as cell-based. (Real-time PCR tracks product formation cycle by cycle.)
In data set [4] the test system is HSV-1 (Herpes simplex virus). It is filed as cell-based. The settings on record: Vero cells.

Molecules are shown by their SMILES. pIC50: −log10 of the molar value. Where two headings read alike, the source gives them in different places.

Usually Cmax stands for the highest concentration seen after dosing.

T2 sequence (Q5S007 970-2527 G2019S limits assumed): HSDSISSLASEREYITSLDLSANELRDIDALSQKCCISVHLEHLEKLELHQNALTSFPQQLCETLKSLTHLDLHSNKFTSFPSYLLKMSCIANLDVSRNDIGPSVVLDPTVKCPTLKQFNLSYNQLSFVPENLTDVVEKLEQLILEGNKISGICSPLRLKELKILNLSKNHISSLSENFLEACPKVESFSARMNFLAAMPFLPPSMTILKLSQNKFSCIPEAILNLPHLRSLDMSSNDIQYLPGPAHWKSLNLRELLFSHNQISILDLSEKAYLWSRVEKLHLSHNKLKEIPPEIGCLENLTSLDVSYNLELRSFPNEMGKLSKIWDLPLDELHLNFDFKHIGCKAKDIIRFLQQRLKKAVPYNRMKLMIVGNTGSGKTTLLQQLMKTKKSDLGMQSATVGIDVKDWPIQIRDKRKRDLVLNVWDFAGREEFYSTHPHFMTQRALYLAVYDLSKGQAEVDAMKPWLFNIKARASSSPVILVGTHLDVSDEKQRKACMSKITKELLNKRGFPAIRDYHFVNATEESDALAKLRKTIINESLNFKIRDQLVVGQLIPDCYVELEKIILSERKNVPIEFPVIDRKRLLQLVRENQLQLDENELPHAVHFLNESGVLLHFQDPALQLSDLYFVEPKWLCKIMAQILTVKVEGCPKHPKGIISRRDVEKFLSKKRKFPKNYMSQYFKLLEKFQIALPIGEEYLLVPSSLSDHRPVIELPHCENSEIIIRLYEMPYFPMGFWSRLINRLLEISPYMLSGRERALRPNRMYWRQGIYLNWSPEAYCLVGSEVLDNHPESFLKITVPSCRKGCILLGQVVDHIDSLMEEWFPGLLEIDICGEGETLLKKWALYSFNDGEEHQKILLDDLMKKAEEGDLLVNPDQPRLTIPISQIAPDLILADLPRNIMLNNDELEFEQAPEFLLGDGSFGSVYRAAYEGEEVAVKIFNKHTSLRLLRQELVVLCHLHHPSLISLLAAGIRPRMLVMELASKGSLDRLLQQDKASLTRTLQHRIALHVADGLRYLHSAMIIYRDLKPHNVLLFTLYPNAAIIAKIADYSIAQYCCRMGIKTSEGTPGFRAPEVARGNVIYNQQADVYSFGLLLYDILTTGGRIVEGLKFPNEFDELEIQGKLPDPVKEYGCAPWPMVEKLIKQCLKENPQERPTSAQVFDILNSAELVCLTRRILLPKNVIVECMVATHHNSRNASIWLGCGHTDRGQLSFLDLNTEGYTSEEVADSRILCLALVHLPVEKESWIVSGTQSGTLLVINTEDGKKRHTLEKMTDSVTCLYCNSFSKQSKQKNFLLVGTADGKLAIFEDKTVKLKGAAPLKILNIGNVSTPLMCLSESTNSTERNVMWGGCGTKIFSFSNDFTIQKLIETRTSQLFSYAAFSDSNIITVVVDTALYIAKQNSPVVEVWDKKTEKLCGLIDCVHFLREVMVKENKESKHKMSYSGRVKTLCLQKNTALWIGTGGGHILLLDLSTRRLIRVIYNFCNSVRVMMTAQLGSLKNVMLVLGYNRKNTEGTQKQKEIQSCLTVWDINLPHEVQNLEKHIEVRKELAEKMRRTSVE
Sequence of P450 2D6 (P10635 whole entry): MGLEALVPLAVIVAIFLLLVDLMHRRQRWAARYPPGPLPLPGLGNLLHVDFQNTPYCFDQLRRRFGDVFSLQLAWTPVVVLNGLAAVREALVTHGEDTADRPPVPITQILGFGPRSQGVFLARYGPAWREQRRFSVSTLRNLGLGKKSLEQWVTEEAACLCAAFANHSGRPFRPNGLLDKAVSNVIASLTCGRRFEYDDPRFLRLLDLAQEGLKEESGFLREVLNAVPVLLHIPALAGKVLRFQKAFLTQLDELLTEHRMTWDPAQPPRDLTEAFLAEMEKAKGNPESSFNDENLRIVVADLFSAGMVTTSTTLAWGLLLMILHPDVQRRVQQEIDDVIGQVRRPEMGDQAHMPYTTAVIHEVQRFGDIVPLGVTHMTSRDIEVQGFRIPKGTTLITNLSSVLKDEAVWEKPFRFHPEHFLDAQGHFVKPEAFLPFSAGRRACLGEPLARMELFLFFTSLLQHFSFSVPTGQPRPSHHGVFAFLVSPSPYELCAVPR

On to `Cc1c[nH]c2ncnc(-c3ccc(NC(=O)N(CCO)c4ccccc4)cc3)c12` [Compound 18b, 1-(2-Hydroxyethyl)-3-(4-(5-methyl-7H-pyrrolo[2,3-d]pyrimidin-4-yl)phenyl)-1-phenylurea], for which, in [1] (iv dosing 1 mg/kg), the “AUC (iv)” value worked out at 8.4 µM·h, the “Cl (iv)” value is on record as 5.2 mL/min/kg, the “T1/2 (iv)” value is 2.2 h and the “Yd (iv)” value worked out at 0.4 L/kg. For the same molecule, in [1] (po dosing 2 mg/kg), the “F (%) (po)” value was 36%. The peak concentration (Cmax) in data set [1] (read-out: Cmax (iv), iv dosing 1 mg/kg) was 7.7 µM. In addition, the “X4 HIV infection (screen)” value in the data set with HIV-1(NL4-3) is “blocked”. Besides, the “P450 % inh. at 10 μM 1A2” value at P450 1A2 is recorded as −16/14/5/13%. Besides, the “P450 % inh. at 10 μM 2D6” value at P450 2D6 was found to be 5%. Also, the inhibition at 0.1 µM in the data set with PC-3 cells (0.1 μM) was determined as 16.5%. Also, the inhibition at 1 µM in the data set on PC-3 cells (1 μM) worked out at 74%. Also, the inhibition at 10 µM with PC-3 cells (10 μM) turned out to be 77.5%. The inhibition at 1 µM at LRRK2 (G20195) (kinase panel) was over 50%.
On to `COC(=O)c1ccc2[nH]c(C3CCN(c4ncnc5[nH]cc(Cl)c45)CC3)nc2c1` [Compound R10015, Methyl 2-(1-(5-chloro-7H-pyrrolo[2,3-d]pyrimidin-4-yl)piperidin-4-yl)-1Hbenzo[d]imidazole-5-carboxylate], for which the pIC50 in the data set with HIV-1(NL4-3) (Human immunodeficiency virus 1, NL43, T-cell, read-out: half maximal inhibition concentration (IC50) for inhibiting HIV infection) is 4.83. Besides, in the data set with HIV-1(NL4-3) ([…], dosages with no detectable cytotoxicity), the “X4 HIV infection (screen)” value is “blocked”. Also, the “surface expression of CD4 and CXCR4” value in data set [2] (1 hour treatment) was “did not alter”. Also, the “surface density of CD4” value in data set [2] (prolonged treatment (4 hours)) is given as “slightly decreased”. For the same molecule, in the data set with resting CD4 T cells, the SDF-1-mediated actin polymerization result was “markedly depressed”. The “viral nuclear migration (2-LTR circles)” value in data set [3] is given as “inhibited”. The HSV-1 infection entry in [4] was “inhibited”. Further, the activity at 1 µM at LRRK2 (G20195) (ATP 10 μM) is 6.7%.
